Source: patent US12662473B2, “Inhibitors for programmed cell necrosis and preparation method therefor and use thereof” (SHANGHAI INSTITUTE OF ORGANIC CHEMISTRY, CHINESE ACADEMY OF …, priority 2019, dated 2026)
Where two headings read alike, the source gives them in different places.

Tests used:
FADD−/− Jurkat cells = assay: TNF-induced programmed cell necrosis inhibition, Cell Titer-Glo viability; assay type: cell-based; settings: Homo sapiens, Jurkat
In short: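 FADD-deficient Jurkat cells (2.5×10^5/mL) were pretreated 1 h at 37 °C with compound plus Smac (50 nM as added), then stimulated with TNFα (50 ng/mL as added) for 14 h at 37 °C, 5% CO2. Viability was measured as ATP by CellTiter-Glo luminescence, with unstimulated DMSO wells as 100%. EC50 values were derived.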

L929 cells = assay: as above; assay type: cell-based, mouse; settings: Mus musculus, read-out: EC50 inhibitory activity on programmed cell necrosis
In short: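 L929 mouse fibroblasts were pretreated 1 h at 37 °C with compound plus Smac (500 nM solution added), then stimulated with TNFα (500 ng/mL solution added) for 14 h. Viability was read as ATP by CellTiter-Glo luminescence, with unstimulated DMSO wells set to 100%, and EC50 values were calculated.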

RIPK1 (S161E) = assay: Effect of RIPK1 S161E mutation on compound activity (S161E MEFs western blot and cell death with TNFα and 5z7); assay type: cell-based, mouse; settings: FIG. 6
Experimental: The biological test protocol used in this experiment was to test the effect of serine mutation at position 161 of RIPK1 to glutamic acid on the activity of the compound. The experiment was verified by two aspects. On the one hand, the mouse-derived MEFs cells in which RIPK1 (S161E) was put back after knocking out RIPK1 were treated with the compound of the present invention, and the phosphorylation state of RIPK1 was detected by western-blot; on the other hand, whether the compounds of the present invention have inhibitory effect on RIPK1-dependent apoptosis in the above-mentioned S161E cells was detected.
1. S161E MEFs cells were digested, and then diluted to 1.5×10^5/ml, and the cells were seeded into 6-well plates with 2 ml per well. The plate was placed in a cell incubator (37° C., 5% CO2) for 12 hours. 0.4 μL of compound 4-8 (50 mM in DMSO) or 0.4 μL of Nec-1s (50 μM in DMSO) was added to the wells respectively, 0.4 μL of DMSO was added to the control group. […] The BCA protein quantification kit was used to detect the protein content of each group, and PIPA lysis buffer was used to adjust the protein amount to make the final volume of 100 μL. […] The cells were incubated at room temperature for 30 min, and the luminescence value was detected to measure the level of intracellular ATP. […]

[1] = 14 h, TNFa + SM164, read-out: EC50 inhibitory activity on programmed cell necrosis
[2] = TNFa, read-out: EC50 inhibitory activity on programmed cell necrosis
[3] = L929, 14 h, L929 cells (mouse), TNFa + SM164

Row | Compound | EC50 (FADD−/− Jurkat cells; [1]) | EC50 (FADD−/− Jurkat cells; [2]) | EC50 (L929 cells; [3]) | EC50 (L929 cells; L929, L929 cells (mouse), TNFa) | inhibition of programmed cell necrosis after mutation of serine 161 of RIPK1 to glutamic acid (RIPK1 (S161E))
1 | Cc1ccc(C2CCCN2C(=O)C(C)(C)Oc2ccc(Cl)cc2)cc1 (stereo not drawn) [QY-4-8] | 568 nM | 91 nM | 139 nM | 50 nM | can still inhibit the programmed cells necrosis
2 | CC(C)(C(=O)N1CCCC1c1ccc(Cl)cc1)n1ccc2cc(Cl)ccc21 (stereo not drawn) [QY-11-15B] | > 10000 nM | > 10000 nM | > 10000 nM | > 10000 nM | 
3 | CC(C)(C(=O)N1CCCC1c1ccc(Cl)cc1)n1cnc2ccc(Cl)cc21 (stereo not drawn) [QY-11-16A] | > 10000 nM | > 10000 nM | > 10000 nM | > 10000 nM | 
4 | CC(C)(C(=O)N1CCCC1c1ccc(Cl)cc1)n1cnc2cc(Cl)ccc21 (stereo not drawn) [QY-11-16B] | > 10000 nM | > 10000 nM | > 10000 nM | > 10000 nM | 
5 | CC(C)(Oc1ccc(C#N)cc1)C(=O)N1CCCC1c1ccc(Cl)cc1 (stereo not drawn) [QY-11-36] | 885 nM | 137 nM | 99.5 nM |  | 
6 | CC(C)(Oc1ccc2ncsc2c1)C(=O)N1CCCC1c1ccc(Cl)cc1 (stereo not drawn) [QY-11-44] | 1320 nM | 212 nM | 677 nM | 0.0105 nM | 
7 | CC(C)(Oc1ccc(C#N)cc1F)C(=O)N1CCCC1c1ccc(Cl)cc1 (stereo not drawn) [QY-11-45] | 915 nM | 139 nM | 108 nM | 0.7 nM | 
8 | COc1cc(C#N)ccc1OC(C)(C)C(=O)N1CCCC1c1ccc(Cl)cc1 (stereo not drawn) [QY-12-11] | 178 nM | 6.72 nM | 16.6 nM | 6.06 nM | 
9 | [2H]c1c([2H])c([C@]2([2H])CCCN2C(=O)C(C)(C)Oc2ccc(C#N)cc2OC)c([2H])c([2H])c1C([2H])([2H])[2H] [QY-12-14] | 45.3 nM | 3.65 nM | 7.63 nM | 3.16 nM | 
10 | Cn1cnc2ccc(OC(C)(C)C(=O)N3CCCC3c3ccc(Cl)cc3)cc21 (stereo not drawn) [QY-12-32] | 2420 nM | 535 nM | 1160 nM | 243 nM | 
11 | Cc1ccc(C2CCCN2C(=O)C(C)(C)Oc2ccc(Cl)cn2)cc1 (stereo not drawn) [QY-13-42] | 4900 nM | 0.0395 nM | 322 nM | 102 nM | 
12 | Cc1ccc(C2CCCN2C(=O)C(C)(C)Oc2ccc(C#N)cn2)cc1 (stereo not drawn) [QY-13-68] | 2420 nM | 27 nM | 4.52 nM | 2.06 nM | 
13 | Cc1ccc(C2CCCN2C(=O)C(C)(C)Oc2ncc(Cl)cn2)cc1 (stereo not drawn) [QY-13-70] | > 10000 nM | 477 nM | 1930 nM | 221 nM | 
14 | Cc1ccc(C2CCCN2C(=O)C(C)(C)Nc2ncc(Cl)cn2)cc1 (stereo not drawn) [QY-13-86] | > 10000 nM | > 10000 nM | > 10000 nM | > 10000 nM | 
15 | Cc1ccc(C2CCCN2C(=O)C(C)(C)C(=O)N2CCC(C)CC2)cc1 (stereo not drawn) [QY-14-8] | > 10000 nM | > 10000 nM | > 10000 nM | > 10000 nM | 
16 | Cc1ccc(C2CCCN2C(=O)C(C)(C)C(=O)N2CCN(C)CC2)cc1 (stereo not drawn) [QY-14-9] | > 10000 nM | > 10000 nM | > 10000 nM | > 10000 nM | 
17 | Cc1ccc(C2CCCN2C(=O)C(C)(C)Oc2cccc(C(N)=O)c2)cc1 (stereo not drawn) [QY-14-17] | > 10000 nM | > 10000 nM | > 10000 nM | > 10000 nM | 
18 | Cc1ccc(C2CCCN2C(=O)C(C)(C)Oc2cccc(C#N)c2)cc1 (stereo not drawn) [QY-14-24] | 939 nM | 21.9 nM | 66 nM | 15.4 nM | 
19 | CNC(=O)c1cccc(OC(C)(C)C(=O)N2CCCC2c2ccc(C)cc2)c1 (stereo not drawn) [QY-14-25] | > 10000 nM | > 10000 nM | > 10000 nM | > 10000 nM | 

Row | Compound | EC50 (FADD−/− Jurkat cells; [1]) | EC50 (FADD−/− Jurkat cells; [2]) | EC50 (L929 cells; [3]) | EC50 (L929 cells; L929, L929 cells (mouse), TNFa) | inhibition of programmed cell necrosis after mutation of serine 161 of RIPK1 to glutamic acid (RIPK1 (S161E))
20 | Cc1ccc(C2CCCN2C(=O)C(C)(C)Oc2cc(C(N)=O)ncn2)cc1 (stereo not drawn) [QY-14-27] | > 10000 nM | > 10000 nM | > 10000 nM | 8450 nM | 
21 | Cc1ccc(C2CCCN2C(=O)C(C)(C)C(=O)N2CCCC2)cc1 (stereo not drawn) [QY-14-29] | > 10000 nM | > 10000 nM | > 10000 nM | > 10000 nM | 
22 | Cc1ccc(C2CCCN2C(=O)C(C)(C)C(=O)n2cccn2)cc1 (stereo not drawn) [QY-14-30] | > 10000 nM | > 10000 nM | > 10000 nM | 4890 nM | 
23 | Cc1ccc(C2CCCN2C(=O)C(C)(C)C(=O)N2CCNC(=O)C2)cc1 (stereo not drawn) [QY-14-31] | > 10000 nM | > 10000 nM | > 10000 nM | > 10000 nM | 
24 | Cc1ccc(C2CCCN2C(=O)C(C)(C)C(=O)N2CCNCC2)cc1 (stereo not drawn) [QY-14-33] | > 10000 nM | > 10000 nM | > 10000 nM | > 10000 nM | 
25 | Cc1ccc(C2CCCN2C(=O)C(C)(C)Oc2ccc(C(N)=O)cc2)cc1 (stereo not drawn) [QY-14-34] | > 10000 nM | 2360 nM | > 10000 nM | 816 nM | 
26 | Cc1ccc(C2CCCN2C(=O)C(C)(C)Oc2cc(C#N)ncn2)cc1 (stereo not drawn) [QY-14-35] | > 10000 nM | > 10000 nM | > 10000 nM | > 10000 nM | 
27 | COc1cc(Cl)ccc1OC(C)(C)C(=O)N1N=CCC1c1cncc(F)c1 (stereo not drawn) [QY-14-40] | > 10000 nM | > 10000 nM | > 10000 nM | > 10000 nM | 
28 | Cc1ccc(C2CCCN2C(=O)C(C)(C)C(=O)N2CCCCC2)cc1 (stereo not drawn) [QY-14-44] | > 10000 nM | > 10000 nM | > 10000 nM | > 10000 nM | 
29 | Cc1ccc(C2CCCN2C(=O)C(C)(C)Oc2ccc(C#N)c(C#N)c2)cc1 (stereo not drawn) [QY-14-59] | > 10000 nM | 4570 nM | > 10000 nM | 467 nM | 
30 | Cc1ccc(C2CCCN2C(=O)C(C)(C)Oc2ccc(Cl)c(C#N)c2)cc1 (stereo not drawn) [QY-14-60] | 1620 nM | 283 nM | 497 nM | 141 nM | 
31 | C#Cc1ccc(OC(C)(C)C(=O)N2CCCC2c2ccc(C)cc2)cc1 (stereo not drawn) [QY-14-68] | 180 nM | 17.2 nM | 102 nM | 21 nM | 
32 | Cc1ccc(C2CCCN2C(=O)C(C)(C)Oc2ccc(C#CC(C)(C)O)cc2)cc1 (stereo not drawn) [QY-15-11] | > 10000 nM | > 10000 nM | > 10000 nM | 2840 nM | 
33 | Cc1ccc(C2CCCN2C(=O)C(C)(C)Oc2ccc(C#Cc3cccnc3)cc2)cc1 (stereo not drawn) [QY-15-12] | > 10000 nM | > 10000 nM | > 10000 nM | 5160 nM | 
34 | Cc1ccc(C2CCCN2C(=O)C(C)(C)Oc2ccc(C#CC3CCNCC3)cc2)cc1 (stereo not drawn) [QY-15-31] | > 10000 nM | 818 nM | > 10000 nM | 82.4 nM | 
35 | [2H]C([2H])([2H])c1ccc(C2CCCN2C(=O)C(C)(C)Oc2ccc(Cl)cc2F)cc1 (stereo not drawn) [XHJ-3-22] | 1460 nM |  | 302 nM | 40 nM | 
36 | CC(C)(Oc1ccc(Cl)cc1F)C(=O)N1N=CCC1c1ccccc1 (stereo not drawn) [ZSQ13-56, 2-(4-Chloro-2-fluorophenoxy)-2-methyl-1-(5-phenyl-4,5-dihydro-1H-pyrazol-1-yl)propan-1-one] | 424 nM | 49 nM | 201 nM | 28 nM | 
37 | CC(C)(Oc1ccc(Cl)cc1F)C(=O)N1N=CCC1c1ccc(F)cc1 (stereo not drawn) [ZSQ13-57] | 370 nM | 26 nM | 112 nM | 10 nM | 
